From ChEMBL document CHEMBL2390831, “Steviol glycosides: chemical diversity, metabolism, and function” (J Nat Prod, 2013)

Test: Antioxidant activity assessed as hydroxyl radical scavenging activity
Assay type: functional

Row | Compound | IC50 [µM]
1 | C=C1C[C@@]23CC[C@H]4[C@@](C)(CCC[C@@]4(C)C(=O)O[C@@H]4O[C@H](CO)[C@@H](O)[C@H](O)[C@H]4O)[C@@H]2CC[C@]1(O[C@@H]1O[C@H](CO)[C@@H](O)[C@H](O)[C@H]1O[C@@H]1O[C@H](CO)[C@@H](O)[C@H](O)[C@H]1O)C3 [STEVIOSIDE] | 1500
2 | O=c1c(O)c(-c2ccc(O)c(O)c2)oc2cc(O)cc(O)c12 [QUERCETIN] | 110
